From patent US10213451B2, “Methods and compounds for modulating the secretion or expression of adhesion proteins or angiopoietins of cells” (PACIFIC ARROW LIMITED, priority 2004, dated 2019)
pIC50: −log10 of the molar value. In brackets after ≈: the same amount, converted by molar mass.

Experiments:
[1] = system: human ovarian cancer cell lines; experiment: MTT assay, additional human ovarian cancer cell lines; assay type: cell-based; conditions: 10 additional human ovarian cancer cell lines
Procedure: (§1) Majority of ovarian cancers arise from the surface epithelium of ovary, most of them belong to the histological subtypes of clear cell and serous carcinoma. We obtained 10 more human ovarian carcinoma cell-lines of these histological subtypes for these studies. The inhibition activity exerted by Xanifolia-Y was determined with MTT assay.

[2] = system: HeLa cells; experiment: MTT assay HeLa; assay type: cell-based; conditions: Homo sapiens
Procedure: Cells. Human cancer cell lines were obtained from American Type Culture Collection: HTB-9 (bladder), HeLa-S3 (cervix), DU145 (prostate), H460 (lung), MCF-7 (breast), K562 (leukocytes), HCT116 (colon), HepG2 (liver), U2OS (bone), T98G (brain), SK-MEL-5 (Skin) and OVCAR-3 (ovary). The cells were grown in following culture media: HeLa-53, DU145, MCF-7, Hep-G2 and T98G are in MEN (Earle's salts); HTB-9, H460, K562 and OVCAR-3 in RPMI-1640; HCT-116 and U2OS in McCoy-5A. They are supplemented with 10% fetal calf serum, glutamine and antibiotics, and incubated in an incubator with 5% CO2 humidified at 37° C.
MTT Assay. The procedure for MTT assay followed the method described by Carmichael et al. (1987) with modifications. […] The formazan (product of the reduction of tetrazolium by viable cells) formed and was dissolved with DMSO and the O.D. at 490 nm, and was measured by an ELISA reader. The MTT level of the cells before drug-treatment was also measured (T0). The % cell-growth (% G) is calculated as: % G=(TD−T0/TC−T0)×100(1), where TC or TD represents O.D. readings of control or drug-treated cells. When T0>TD, then the cytotoxicity (LC) expressed as % of the control is calculated as: % LC=(TD−T0/T0)×100(2).

[3] = system: (Mouth) KB cells; experiment: MTT assay KB; assay type: cell-based; conditions: Homo sapiens
[4] = system: RMG2; experiment: MTT assay RMG2; assay type: cell-based; conditions: Homo sapiens; RMG2, Clear cell
Procedure: as §1

[5] = system: SKOV 3; experiment: MTT assay SKOV 3; assay type: cell-based; conditions: Homo sapiens, SK-OV-3; SKOV 3, Serous
Procedure: as §1

[6] = system: Fibronectin secretion from bladder carcinoma cells (HTB-9); experiment: Fibronectin secretion (Western blot), HTB-9 cells; assay type: cell-based, human; conditions: 10 ug/ml
[7] = system: Fibronectin cellular content in ES2 cells; experiment: Cellular contents of Fibronectin and beta-actin (Western blot); assay type: cell-based, human; conditions: 24 hours
Procedure: Cells: ES2 (human ovarian carcinoma cells) were grew in RPMI 1640 medium. 1.5 million cells were seeded in a T25 flask and grown for 24 hours before drug-treatment. Drug-treatment: Cells cultures were replaced with fresh RPMI medium containing either 2.5 ul of DMSO (as control) [D]; or 10 ug/ml (final concentration) of Xanifolia-Y3 [Y]. After 24 hours, aliquot of culture medium was taken out for Fibronectin determination (Western blot method). The attached cells were suspended in 1 ml of SDS sample buffer (cell-extract).
Western Blot: Spent culture medium (0.6 ml) was mixed with SDS sample buffer (0.2 ml), and the cell-extract was boiled for 3 minutes before loading to SDS gel. Samples (80 ul/lane) were applied to a 6%-10% SDS gel and electrophoresis was conducted with 100 volts for 2 hours. Protein was transferred to a nitrocellulose membrane electrophoretically (30 min at 100 volts). The nitrocellulose blot was blocked with 5% non-fat dry milk in PBS (1-2 hours). The blot was then incubated with the first antibodies (mouse anti-FN, specific to human FN, SIGMA F0916 and mouse anti-beta actin, SIGMA A5316) and second antibody (Anti-mouse IgG AP conjugated, Promega S3721). The immuno-bands were developed with BCIP/NBT color development system (Promega S3771). Determination of Western band intensity: The band-images of Western blot were captured with a digital camera (3-5 pictures were taken per gel) and the intensity of bands was determined using “Image J” software.
FN concentrations were normalized with the cellular beta-Actin concentrations. Fibronectin secreted into medium and inside Y-treated cells were determined and compare to controls (DMSO-treated cells).

[8] = system: OVCAR3 cells; experiment: Apoptosis by flow cytometry of GFP-Annexin-V and propidium iodide; assay type: cell-based, human; conditions: 24 h after exposure
Procedure: Experiment of apoptosis of OVCAR3 cells after treatment with Xanifolia-Y was assessed with flow cytometry of GFP-Annexin-V and propidium iodide.

[9] = system: ES2 cells inoculated into peritoneal cavity; experiment: Nodule formation in peritoneal cavity, ES2; assay type: in vivo, nu/nu mice; conditions: ES2, 0.25 mg/kg i.p. daily 5 days per week for two-three weeks
From the text: The relationship between the nodule formation and timelines during tumor progression are established. Usually, 4 to 6 nodules are formed during the entire period of tumor progression in this system (Lander Jr., et al., 2005). We start the drug-treatment at times equivalent to 20% and 50% of full tumor progression. At these times, the number of nodule is less and the size (weight) of the nodules is smaller. At the end of the drug-treatment, animals are euthanized and number of tumor nodules is determined and the tumor size (mass) is weighted.
Animals: 40 nu/nu mice are used per experiment.
2 groups of mice (20 each) (i) Drug-treatment start at time equivalent to 20% of full tumor progression (or on 4 days after tumor inoculation) (ii) Drug-treatment starts at time equivalent to 50% of full tumor progression (or on 10 days after tumor inoculation). On the day of starting drug-treatment, half of the animals (10) will be scarified and the number and weight of nodules will measured.
Drug-Treatments: Animals are administered daily for 5 days per week for two—three weeks. Dose: 0.25 mg/kg, through i.p. route.

## C/C=C(/C)C(=O)O[C@H]1[C@H](OC(=O)/C(C)=C\C)[C@@]2(CO)C(CC1(C)C)C1=CCC3[C@@]4(C)CC[C@H](O[C@@H]5OC(C(=O)O)[C@@H](O)C(O[C@@H]6O[C@@H](CO)C(O)C6O)C5O[C@@H]5OC(CO)[C@H](O)C(O)C5O)C(C)(C)C4CC[C@@]3(C)[C@]1(C)[C@@H](O)[C@H]2O (stereo partly drawn) [Xanifolia-Y, 3-O-[β-D-galactopyranosyl (1→2)]-α-L-arabinofuranosy (1→3)-β-D-glucuronopyranosyl-21,22-O-diangeloyl-3β, 15α, 16α, 21β, 22α, 28-hexahydroxyolean-12-ene]
[1]
  pIC50: 4.92 to 5.70
[1]; Homo sapiens
  pIC50: 5.00 to 5.70
[2]
  IC50: 20 µg/mL (≈ 17.5 µM)
[3]
  IC50: 6 µg/mL (≈ 5.26 µM)
[4]
  pIC50: 5.06
[5]
  pIC50: 4.98
[6]
  % inhibition of Fibronectin secretion: about 50%
[6]; listed as Y3
  % inhibition of Fibronectin secretion: 51%
[6]; Homo sapiens
  inhibition at 10 µg/mL: 50%
[7]; 10 ug/ml
  cellular beta-actin content: no change
  decrease of Fibronectin cellular content: 70%
[7]; Homo sapiens, ES-2, 10 ug/ml, read-out: Fibronectin cellular content, % of control
  activity at 10 µg/mL: 30%
[8]
  form of cell death induced: apoptosis is a major form of cell death
[9]
  numbers of tumor nodules: less
  size of tumor: smaller
